Source: patent US20260092061A1, “COMPOUNDS FOR TARGETED PROTEIN DEGRADATION” (Amphista Therapeutics Limited, priority 2022, published 2026)
Where two headings read alike, the source gives them in different places.

Molecular target: T1, BRD9 (Homo sapiens, UniProt Q9H8M2)
T1 sequence (Q9H8M2 1-597): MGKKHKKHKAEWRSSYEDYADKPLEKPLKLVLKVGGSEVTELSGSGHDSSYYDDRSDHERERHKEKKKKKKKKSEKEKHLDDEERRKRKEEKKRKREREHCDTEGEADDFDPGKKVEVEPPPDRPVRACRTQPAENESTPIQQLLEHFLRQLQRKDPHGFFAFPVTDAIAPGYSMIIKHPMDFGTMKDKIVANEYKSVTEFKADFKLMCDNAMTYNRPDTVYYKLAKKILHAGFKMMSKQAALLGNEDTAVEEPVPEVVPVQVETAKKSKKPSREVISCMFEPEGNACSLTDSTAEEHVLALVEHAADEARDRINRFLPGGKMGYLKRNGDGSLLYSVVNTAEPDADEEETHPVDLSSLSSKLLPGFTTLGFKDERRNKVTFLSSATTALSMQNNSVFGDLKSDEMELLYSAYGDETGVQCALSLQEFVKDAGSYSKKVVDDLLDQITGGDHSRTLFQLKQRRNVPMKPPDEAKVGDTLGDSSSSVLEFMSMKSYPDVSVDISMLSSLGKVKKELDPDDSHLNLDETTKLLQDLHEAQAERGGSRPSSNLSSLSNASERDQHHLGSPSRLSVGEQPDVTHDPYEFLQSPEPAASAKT
Assay: Degradation of BRD9 (IF), immunofluorescence in MV4-11 cells, 24 hours (Assay Protocol 2)
Assay type: cell-based
Parameters: A suspension of MV4-11 cells (ATCC CRL-9591) was prepared; host or cells: MV4-11
Details: BRD9 degradation
In short: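 MV4-11 cells treated with compound 24 h at 37° C., then fixed, permeabilised and immunostained for BRD9 (anti-BRD9 E4Q3F, Alexa 647 secondary, Hoechst counterstain). High-content imaging quantified nuclear BRD9 signal; % BRD9 remaining normalised to DMSO and 100 nM CFT-8634 controls.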

[1] = MV4-11, Assay protocol 2, read-out: Dmax
[2] = Assay protocol 2, read-out: DC50
[3] = MV4-11, Table 4, determined according to Assay Protocol 2, read-out: Dmax^2

Dmax [1] [%] | DC50 [2] [nM] | Dmax [3] [%] | DC50 (Table 4, determined according to Assay Protocol 2, read-out: DC50^2) [nM] | Compound
40 to 70 | – | – | – | CC[C@H]1c2cccc(CN3CCN(Cc4c(OC)cc(-c5cn(C)c(=O)c(C)c5C)cc4OC)CC34CC4)c2CCN1C(=O)/C(C#N)=C/C(C)(C)CF (single isomer, unassigned) [Compound C92, (E/Z)-2-(5-((7-(2,6-dimethoxy-4-(1,4,5-trimethyl-6-oxo-1,6-dihydropyridin-3-yl)benzyl)-4,7-diazaspiro[2.5]octan-4-yl)methyl)-1-ethyl-1,2,3,4-tetrahydroisoquinoline-2-carbonyl)-5-fluoro-4,4-dimethylpent-2-enenitrile]
> 75 | < 1.25 | – | – | CC[C@@H]1c2cccc(CN3CCN(Cc4c(OC)cc(-c5cn(C)c(=O)c(C)c5C)cc4OC)CC34CC4)c2CCN1C(=O)/C(C#N)=C/C(C)(C)CF (single isomer, unassigned) [Compound C93, (E/Z)-2-(5-((7-(2,6-dimethoxy-4-(1,4,5-trimethyl-6-oxo-1,6-dihydropyridin-3-yl)benzyl)-4,7-diazaspiro[2.5]octan-4-yl)methyl)-1-ethyl-1,2,3,4-tetrahydroisoquinoline-2-carbonyl)-5-fluoro-4,4-dimethylpent-2-enenitrile]
> 75 | < 1.25 | – | – | CCC1c2cccc(CN3CCN(Cc4c(OC)cc(-c5cn(C)c(=O)c(C)c5C)cc4OC)CC34CC4)c2CCN1C(=O)/C(C#N)=C/C(C)(C)C (single isomer, unassigned) [Compound C94, (E/Z)-2-(5-((7-(2,6-dimethoxy-4-(1,4,5-trimethyl-6-oxo-1,6-dihydropyridin-3-yl)benzyl)-4,7-diazaspiro[2.5]octan-4-yl)methyl)-1-ethyl-1,2,3,4-tetrahydroisoquinoline-2-carbonyl)-4,4-dimethylpent-2-enenitrile]
> 75 | 1.25 to 10 | – | – | COc1cc(-c2cn(C)c(=O)c(C)c2C)cc(OC)c1CN1CCN(Cc2ccc3c(c2)[C@H](C(C)C)N(C(=O)/C(C#N)=C/C(C)(C)CF)CC3)C2(CC2)C1 (single isomer, unassigned) [Compound C96, (E/Z)-2-(7-((7-(2,6-dimethoxy-4-(1,4,5-trimethyl-6-oxo-1,6-dihydropyridin-3-yl)benzyl)-4,7-diazaspiro[2.5]octan-4-yl)methyl)-1-isopropyl-1,2,3,4-tetrahydroisoquinoline-2-carbonyl)-5-fluoro 4,4-dimethylpent-2-enenitrile]
70 to 75 | 10 to 25 | – | – | COc1cc(-c2cn(C)c(=O)c(C)c2C)cc(OC)c1CN1CCN(Cc2ccc3c(c2)[C@@H](C(C)C)N(C(=O)/C(C#N)=C/C(C)(C)CF)CC3)C2(CC2)C1 (single isomer, unassigned) [Compound C97, (E/Z)-2-(7-((7-(2,6-dimethoxy-4-(1,4,5-trimethyl-6-oxo-1,6-dihydropyridin-3-yl)benzyl)-4,7-diazaspiro[2.5]octan-4-yl)methyl)-1-isopropyl-1,2,3,4-tetrahydroisoquinoline-2-carbonyl)-5-fluoro 4,4-dimethylpent-2-enenitrile]
> 75 | < 1.25 | – | – | COc1cc(-c2cn(C)c(=O)c(C)c2C)cc(OC)c1CN1CCN(Cc2cccc3c2CCN(C(=O)/C(C#N)=C/C(C)(C)C)[C@H]3C2CC2)C2(CC2)C1 (single isomer, unassigned) [Compound C99, (E/Z)-2-(1-cyclopropyl-5-((7-(2,6-dimethoxy-4-(1,4,5-trimethyl-6-oxo-1,6-dihydropyridin-3-yl)benzyl)-4,7-diazaspiro[2.5]octan-4-yl)methyl)-1,2,3,4-tetrahydroisoquinoline-2-carbonyl)-4,4-dimethylpent-2-enenitrile]
> 75 | < 1.25 | – | – | CCC[C@H]1c2cccc(CN3CCN(Cc4c(OC)cc(-c5cn(C)c(=O)c(C)c5C)cc4OC)CC34CC4)c2CCN1C(=O)/C(C#N)=C/C(C)(C)C (single isomer, unassigned) [Compound C100, (E/Z)-2-(5-((7-(2,6-dimethoxy-4-(1,4,5-trimethyl-6-oxo-1,6-dihydropyridin-3-yl)benzyl)-4,7-diazaspiro[2.5]octan-4-yl)methyl)-1-propyl-1,2,3,4-tetrahydroisoquinoline-2-carbonyl)-4,4-dimethylpent-2-enenitrile]
40 to 70 | 25 to 1000 | – | – | CCC[C@@H]1c2cccc(CN3CCN(Cc4c(OC)cc(-c5cn(C)c(=O)c(C)c5C)cc4OC)CC34CC4)c2CCN1C(=O)/C(C#N)=C/C(C)(C)C (single isomer, unassigned) [Compound C101, (E/Z)-2-(5-((7-(2,6-dimethoxy-4-(1,4,5-trimethyl-6-oxo-1,6-dihydropyridin-3-yl)benzyl)-4,7-diazaspiro[2.5]octan-4-yl)methyl)-1-propyl-1,2,3,4-tetrahydroisoquinoline-2-carbonyl)-4,4-dimethylpent-2-enenitrile]
40 to 70 | 25 to 1000 | – | – | COc1cc(-c2cn(C)c(=O)c(C)c2C)cc(OC)c1CN1CCN(Cc2cccc3c2CCN(C(=O)/C(C#N)=C/C(C)(C)CF)C3C(C)C)CC12CC2 (single isomer, unassigned) [Compound C102, (E/Z)-2-(5-((4-(2,6-dimethoxy-4-(1,4,5-trimethyl-6-oxo-1,6-dihydropyridin-3-yl)benzyl)-4,7-diazaspiro[2.5]octan-7-yl)methyl)-1-isopropyl-1,2,3,4-tetrahydroisoquinoline-2-carbonyl)-5-fluoro-4,4-dimethylpent-2-enenitrile]
> 75 | < 1.25 | – | – | COc1cc(-c2cn(C)c(=O)c(C)c2C)cc(OC)c1CN1CCN(Cc2cccc3c2CCN(C(=O)/C(C#N)=C/C(C)(C)CF)[C@@H]3C(C)C)CC12CC2 (single isomer, unassigned) [Compound C103, (E/Z)-2-(5-((4-(2,6-dimethoxy-4-(1,4,5-trimethyl-6-oxo-1,6-dihydropyridin-3-yl)benzyl)-4,7-diazaspiro[2.5]octan-7-yl)methyl)-1-isopropyl-1,2,3,4-tetrahydroisoquinoline-2-carbonyl)-5-fluoro-4,4-dimethylpent-2-enenitrile]
40 to 70 | 25 to 1000 | – | – | CC[C@H]1c2cccc(CN3CCN(Cc4c(OC)cc(-c5cn(C)c(=O)c(C)c5C)cc4OC)C4(CC4)C3)c2CCN1C(=O)/C(C#N)=C/C(C)(C)CF (single isomer, unassigned) [Compound C104, (E/Z)-2-(5-((4-(2,6-dimethoxy-4-(1,4,5-trimethyl-6-oxo-1,6-dihydropyridin-3-yl)benzyl)-4,7-diazaspiro[2.5]octan-7-yl)methyl)-1-ethyl-1,2,3,4-tetrahydroisoquinoline-2-carbonyl)-6-fluoro-4,4-dimethylpent-2-enenitrile]
> 75 | < 1.25 | – | – | CC[C@@H]1c2cccc(CN3CCN(Cc4c(OC)cc(-c5cn(C)c(=O)c(C)c5C)cc4OC)C4(CC4)C3)c2CCN1C(=O)/C(C#N)=C/C(C)(C)CF (single isomer, unassigned) [Compound C105, (E/Z)-2-(5-((4-(2,6-dimethoxy-4-(1,4,5-trimethyl-6-oxo-1,6-dihydropyridin-3-yl)benzyl)-4,7-diazaspiro[2.5]octan-7-yl)methyl)-1-ethyl-1,2,3,4-tetrahydroisoquinoline-2-carbonyl)-6-fluoro-4,4-dimethylpent-2-enenitrile]
40 to 70 | 10 to 25 | – | – | COc1cc(-c2cn(C)c(=O)c(C)c2C)cc(OC)c1CN1CCCN(Cc2ccc3c(c2)[C@@H](C)N(C(=O)/C(C#N)=C/C(C)(C)C)CC3)CC1 (single isomer, unassigned) [Compound C107]
40 to 70 | 25 to 1000 | – | – | COc1cc(-c2cn(C)c(=O)c(C)c2C)cc(OC)c1CN1CCC(Oc2cccc3c2CCN(C(=O)/C(C#N)=C/C(C)(C)C)C3C)C1 (stereo in doubt) [Compound B134, (E)-2-(5-(((S)-1-(2,6-dimethoxy-4-(1,4,5-trimethyl-6-oxo-1,6-dihydropyridin-3-yl)benzyl)pyrrolidin-3-yl)oxy)-1-methyl-1,2,3,4-tetrahydroisoquinoline-2-carbonyl)-4,4-dimethylpent-2-enenitrile]
– | – | > 70 | – | COc1cc(-c2cn(C)c(=O)c(C)c2C)cc(OC)c1CN(C)C1CCN(C(=O)/C(C#N)=C/c2cccc(C(F)(F)F)n2)CC1 [BRD9aa, (E/Z)-2-(4-((2,6-dimethoxy-4-(1,4,5-trimethyl-6-oxo-1,6-dihydropyridin-3-yl)benzyl)(methyl)amino)piperidine-1-carbonyl)-3-(6-(trifluoromethyl)pyridin-2-yl)acrylonitrile]
– | – | > 70 | > 200 | COc1cc(-c2cn(C)c(=O)c(C)c2C)cc(OC)c1CN1CCC2(CC1)CCN(C(=O)/C(C#N)=C/c1cccc(Br)n1)CC2 [BRD9r, (E/Z)-3-(6-bromopyridin-2-yl)-2-(9-(2,6-dimethoxy-4-(1,4,5-trimethyl-6-oxo-1,6-dihydropyridin-3-yl)benzyl)-3,9-diazaspiro[5.5]undecane-3-carbonyl)acrylonitrile]
